Columns and labels:
Experiment in all cases: relative viability (nuclei count vs DMSO), 5 days (fraction); higher = more cells survive
CAL-12T = tested on: CAL-12T
Method in brief: (§1)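 A single step with final 0.05% Triton X-100, 1% formaldehyde and 1 ug/ml Hoechst fixed the cells and stained nuclei 5 days after treatment. Lung cancer cell lines in 1536-well plates had been treated by pin tool the day after seeding with one drug alone or a fixed anchor-drug dose plus five library-drug doses (not always all listed) in √10 steps, and nuclei were counted on 4× images. Relative viability is the ratio of nuclei in treated wells to nuclei in vehicle wells, taken as the median of duplicate plates.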

COR-L 105 = tested on: COR-L 105
Method in brief: as §1

COR-L23 = tested on: COR-L23
Method in brief: as §1

HARA = tested on: HARA
Method in brief: as §1

HCC-15 = tested on: HCC-15
Method in brief: as §1

HCC-366 = tested on: HCC-366
Method in brief: as §1

HCC-44 = tested on: HCC-44
Method in brief: as §1

HCC-827 = tested on: HCC-827
Method in brief: as §1

HOP-62 = tested on: HOP-62
Method in brief: as §1

LC-2-ad = tested on: LC-2-ad
Method in brief: as §1

LK-2 = tested on: LK-2
Method in brief: as §1

LU99A = tested on: LU99A
Method in brief: as §1

LXF-289 = tested on: LXF-289
Method in brief: as §1

NCI-H1944 = tested on: NCI-H1944
Method in brief: as §1

NCI-H1975 = tested on: NCI-H1975
Method in brief: as §1

NCI-H2023 = tested on: NCI-H2023
Method in brief: as §1

NCI-H2085 = tested on: NCI-H2085
Method in brief: as §1

NCI-H2342 = tested on: NCI-H2342
Method in brief: as §1

NCI-H522 = tested on: NCI-H522
Method in brief: as §1

NCI-H647 = tested on: NCI-H647
Method in brief: as §1

NCI-H838 = tested on: NCI-H838
Method in brief: as §1

PC-14 = tested on: PC-14
Method in brief: as §1

SW 900 = tested on: SW 900
Method in brief: as §1

Q: For `Oc1nc(-c2ccc(C(F)(F)F)cc2)nc2c1CSCC2` [XAV939] + O=C(CCCCCCC(=O)Nc1ccccc1)NO [Vorinostat] (partner 1 µM), which relative viability (CAL-12T; first compound 0.08 µM) is on record?
A: The relative viability was 0.984.

Q: And the relative viability (CAL-12T; first compound 0.253 µM)?
A: Its relative viability is 0.483.

Q: And the relative viability (CAL-12T; first compound 0.8 µM)?
A: Its relative viability is 0.823.

Q: And the relative viability (CAL-12T; first compound 2.53 µM)?
A: Its relative viability is 0.381.

Q: And the relative viability (COR-L 105; first compound 0.08 µM)?
A: Its relative viability is 0.85.

Q: And the relative viability (COR-L 105; first compound 0.253 µM)?
A: Its relative viability is 0.659.

Q: What about the relative viability (COR-L 105; first compound 0.8 µM) of the same compound?
A: The relative viability was 0.719.

Q: And the relative viability (COR-L 105; first compound 2.53 µM)?
A: Its relative viability is 0.65.

Q: And the relative viability (COR-L23; first compound 0.08 µM)?
A: The relative viability was 0.443.

Q: What about the relative viability (COR-L23; first compound 0.253 µM) of the same compound?
A: The relative viability was 0.472.

Q: And the relative viability (COR-L23; first compound 0.8 µM)?
A: The relative viability was 0.483.

Q: And the relative viability (COR-L23; first compound 2.53 µM)?
A: Its relative viability is 0.39.

Q: What about the relative viability (HARA; first compound 0.08 µM) of the same compound?
A: The relative viability was 0.529.

Q: What about the relative viability (HARA; first compound 0.253 µM) of the same compound?
A: Its relative viability is 0.511.

Q: What about the relative viability (HARA; first compound 0.8 µM) of the same compound?
A: Its relative viability is 0.648.

Q: What about the relative viability (HARA; first compound 2.53 µM) of the same compound?
A: Its relative viability is 0.535.

Q: What about the relative viability (HCC-15; first compound 0.08 µM) of the same compound?
A: Its relative viability is 0.824.

Q: What about the relative viability (HCC-15; first compound 0.253 µM) of the same compound?
A: Its relative viability is 0.742.

Q: And the relative viability (HCC-15; first compound 0.8 µM)?
A: The relative viability was 0.837.

Q: What about the relative viability (HCC-15; first compound 2.53 µM) of the same compound?
A: The relative viability was 0.692.

Q: What about the relative viability (HCC-366; first compound 0.08 µM) of the same compound?
A: The relative viability was 0.398.

Q: And the relative viability (HCC-366; first compound 0.253 µM)?
A: Its relative viability is 0.25.

Q: What about the relative viability (HCC-366; first compound 0.8 µM) of the same compound?
A: Its relative viability is 0.293.

Q: And the relative viability (HCC-366; first compound 2.53 µM)?
A: The relative viability was 0.189.

Q: What about the relative viability (HCC-44; first compound 0.08 µM) of the same compound?
A: Its relative viability is 0.981.

Q: And the relative viability (HCC-44; first compound 0.253 µM)?
A: The relative viability was 0.919.

Q: And the relative viability (HCC-44; first compound 0.8 µM)?
A: Its relative viability is 0.947.

Q: What about the relative viability (HCC-44; first compound 2.53 µM) of the same compound?
A: Its relative viability is 1.04.

Q: What about the relative viability (HCC-827; first compound 0.08 µM) of the same compound?
A: Its relative viability is 0.872.

Q: And the relative viability (HCC-827; first compound 0.253 µM)?
A: Its relative viability is 0.867.

Q: And the relative viability (HCC-827; first compound 0.8 µM)?
A: The relative viability was 0.803.

Q: And the relative viability (HCC-827; first compound 2.53 µM)?
A: Its relative viability is 0.686.

Q: What about the relative viability (HOP-62; first compound 0.08 µM) of the same compound?
A: The relative viability was 0.888.

Q: And the relative viability (HOP-62; first compound 0.253 µM)?
A: The relative viability was 0.525.

Q: What about the relative viability (HOP-62; first compound 0.8 µM) of the same compound?
A: The relative viability was 0.501.

Q: What about the relative viability (HOP-62; first compound 2.53 µM) of the same compound?
A: Its relative viability is 0.311.

Q: What about the relative viability (LC-2-ad; first compound 0.08 µM) of the same compound?
A: The relative viability was 0.735.

Q: What about the relative viability (LC-2-ad; first compound 0.253 µM) of the same compound?
A: Its relative viability is 0.689.

Q: And the relative viability (LC-2-ad; first compound 0.8 µM)?
A: Its relative viability is 0.705.

Q: What about the relative viability (LC-2-ad; first compound 2.53 µM) of the same compound?
A: Its relative viability is 0.567.

Q: And the relative viability (LK-2; first compound 0.08 µM)?
A: Its relative viability is 0.371.

Q: And the relative viability (LK-2; first compound 0.253 µM)?
A: Its relative viability is 0.325.

Q: What about the relative viability (LK-2; first compound 0.8 µM) of the same compound?
A: The relative viability was 0.251.

Q: And the relative viability (LK-2; first compound 2.53 µM)?
A: Its relative viability is 0.24.

Q: What about the relative viability (LU99A; first compound 0.08 µM) of the same compound?
A: Its relative viability is 0.454.

Q: And the relative viability (LU99A; first compound 0.253 µM)?
A: Its relative viability is 0.598.

Q: What about the relative viability (LU99A; first compound 0.8 µM) of the same compound?
A: The relative viability was 0.507.

Q: What about the relative viability (LU99A; first compound 2.53 µM) of the same compound?
A: The relative viability was 0.43.

Q: What about the relative viability (LXF-289; first compound 0.08 µM) of the same compound?
A: Its relative viability is 0.728.

Q: What about the relative viability (LXF-289; first compound 0.253 µM) of the same compound?
A: Its relative viability is 0.68.

Q: What about the relative viability (LXF-289; first compound 0.8 µM) of the same compound?
A: Its relative viability is 0.804.

Q: What about the relative viability (LXF-289; first compound 2.53 µM) of the same compound?
A: Its relative viability is 0.8.

Q: What about the relative viability (NCI-H1944; first compound 0.08 µM) of the same compound?
A: Its relative viability is 0.55.

Q: What about the relative viability (NCI-H1944; first compound 0.253 µM) of the same compound?
A: The relative viability was 0.625.

Q: And the relative viability (NCI-H1944; first compound 0.8 µM)?
A: Its relative viability is 0.508.

Q: And the relative viability (NCI-H1944; first compound 2.53 µM)?
A: Its relative viability is 0.354.

Q: What about the relative viability (NCI-H1975; first compound 0.08 µM) of the same compound?
A: Its relative viability is 0.784.

Q: What about the relative viability (NCI-H1975; first compound 0.253 µM) of the same compound?
A: Its relative viability is 0.588.

Q: What about the relative viability (NCI-H1975; first compound 0.8 µM) of the same compound?
A: Its relative viability is 0.673.

Q: What about the relative viability (NCI-H1975; first compound 2.53 µM) of the same compound?
A: The relative viability was 0.667.

Q: And the relative viability (NCI-H2023; first compound 0.08 µM)?
A: Its relative viability is 0.795.

Q: And the relative viability (NCI-H2023; first compound 0.253 µM)?
A: The relative viability was 0.552.

Q: And the relative viability (NCI-H2023; first compound 0.8 µM)?
A: The relative viability was 0.574.

Q: And the relative viability (NCI-H2023; first compound 2.53 µM)?
A: The relative viability was 0.461.

Q: What about the relative viability (NCI-H2085; first compound 0.08 µM) of the same compound?
A: Its relative viability is 0.741.

Q: What about the relative viability (NCI-H2085; first compound 0.253 µM) of the same compound?
A: Its relative viability is 0.736.

Q: And the relative viability (NCI-H2085; first compound 0.8 µM)?
A: Its relative viability is 0.789.

Q: And the relative viability (NCI-H2085; first compound 2.53 µM)?
A: The relative viability was 0.716.

Q: And the relative viability (NCI-H2342; first compound 0.08 µM)?
A: The relative viability was 0.791.

Q: What about the relative viability (NCI-H2342; first compound 0.253 µM) of the same compound?
A: The relative viability was 0.705.

Q: And the relative viability (NCI-H2342; first compound 0.8 µM)?
A: Its relative viability is 0.768.

Q: And the relative viability (NCI-H2342; first compound 2.53 µM)?
A: The relative viability was 0.533.

Q: And the relative viability (NCI-H522; first compound 0.08 µM)?
A: Its relative viability is 1.17.

Q: What about the relative viability (NCI-H522; first compound 0.253 µM) of the same compound?
A: Its relative viability is 0.851.

Q: And the relative viability (NCI-H522; first compound 0.8 µM)?
A: The relative viability was 0.718.

Q: And the relative viability (NCI-H522; first compound 2.53 µM)?
A: The relative viability was 0.846.

Q: And the relative viability (NCI-H647; first compound 0.08 µM)?
A: Its relative viability is 0.581.

Q: What about the relative viability (NCI-H647; first compound 0.253 µM) of the same compound?
A: The relative viability was 0.545.

Q: And the relative viability (NCI-H647; first compound 0.8 µM)?
A: The relative viability was 0.496.

Q: And the relative viability (NCI-H647; first compound 2.53 µM)?
A: Its relative viability is 0.207.

Q: What about the relative viability (NCI-H838; first compound 0.08 µM) of the same compound?
A: Its relative viability is 0.685.

Q: And the relative viability (NCI-H838; first compound 0.253 µM)?
A: The relative viability was 0.609.

Q: What about the relative viability (NCI-H838; first compound 0.8 µM) of the same compound?
A: The relative viability was 0.658.

Q: What about the relative viability (NCI-H838; first compound 2.53 µM) of the same compound?
A: Its relative viability is 0.558.

Q: What about the relative viability (PC-14; first compound 0.08 µM) of the same compound?
A: Its relative viability is 0.96.

Q: And the relative viability (PC-14; first compound 0.253 µM)?
A: The relative viability was 0.622.

Q: What about the relative viability (PC-14; first compound 0.8 µM) of the same compound?
A: The relative viability was 0.789.

Q: And the relative viability (PC-14; first compound 2.53 µM)?
A: Its relative viability is 0.598.

Q: What about the relative viability (SW 900; first compound 0.253 µM) of the same compound?
A: The relative viability was 0.528.

Q: What about the relative viability (SW 900; first compound 0.8 µM) of the same compound?
A: Its relative viability is 0.494.

Q: And the relative viability (SW 900; first compound 2.53 µM)?
A: The relative viability was 0.373.

Source: the supplement of paper PMC10307832
